# Source: patent US9409037B2, “Enhanced anti-microbial PDT” (Biolitec Pharma Marketing LTD, priority 2010, dated 2016)
# Tested on: Staphylococcus aureus
# Assay: Antimicrobial PDT killing of bacteria in calf serum in a flow system
# Type: cell-based
# Conditions: 20 μM Safranin O in 99% calf serum; 532 nm laser, fluence rate 30 mW/cm^2, continuous irradiation; three passages, flow rate 10 ml/min
# Procedure: In a separate test a composition comprising Safranin O was added to calf serum (100% serum) solution containing Staphylococcus aureus ([…]), which is a common component of the micro flora of wounds, resulting in a final concentration of 20 μM Safranin O in 99% calf serum. Irradiation was delivered in a flow system corresponding to FIG. 3 B via a light fiber from a laser, Ceralas G2 (Biolitec AG, Germany) operating at 532 nm and using a fluence rate of 30 mW/cm^2.
structure (smiles),measurement,value
Cc1cc2nc3cc(C)c(N)cc3[n+](-c3ccccc3)c2cc1N.[Cl-] [Safranin O],percentage of killing of bacteria,about 99.9%
